Measured values from patent publication US20220033397A1, “PHARMACEUTICAL COMPOUNDS AND THEIR USE AS INHIBITORS OF UBIQUITIN SPECIFIC PROTEASE 19 (USP19)” (ALMAC DISCOVERY LIMITED, priority 2018, published 2022).

Biological target: T1, Full-length USP19 (Homo sapiens, UniProt O94966)
T1 construct: Full-length USP19 was purchased from Boston Biochem (E-576); purchased Boston Biochem E-576
T1 sequence (O94966 1-1318): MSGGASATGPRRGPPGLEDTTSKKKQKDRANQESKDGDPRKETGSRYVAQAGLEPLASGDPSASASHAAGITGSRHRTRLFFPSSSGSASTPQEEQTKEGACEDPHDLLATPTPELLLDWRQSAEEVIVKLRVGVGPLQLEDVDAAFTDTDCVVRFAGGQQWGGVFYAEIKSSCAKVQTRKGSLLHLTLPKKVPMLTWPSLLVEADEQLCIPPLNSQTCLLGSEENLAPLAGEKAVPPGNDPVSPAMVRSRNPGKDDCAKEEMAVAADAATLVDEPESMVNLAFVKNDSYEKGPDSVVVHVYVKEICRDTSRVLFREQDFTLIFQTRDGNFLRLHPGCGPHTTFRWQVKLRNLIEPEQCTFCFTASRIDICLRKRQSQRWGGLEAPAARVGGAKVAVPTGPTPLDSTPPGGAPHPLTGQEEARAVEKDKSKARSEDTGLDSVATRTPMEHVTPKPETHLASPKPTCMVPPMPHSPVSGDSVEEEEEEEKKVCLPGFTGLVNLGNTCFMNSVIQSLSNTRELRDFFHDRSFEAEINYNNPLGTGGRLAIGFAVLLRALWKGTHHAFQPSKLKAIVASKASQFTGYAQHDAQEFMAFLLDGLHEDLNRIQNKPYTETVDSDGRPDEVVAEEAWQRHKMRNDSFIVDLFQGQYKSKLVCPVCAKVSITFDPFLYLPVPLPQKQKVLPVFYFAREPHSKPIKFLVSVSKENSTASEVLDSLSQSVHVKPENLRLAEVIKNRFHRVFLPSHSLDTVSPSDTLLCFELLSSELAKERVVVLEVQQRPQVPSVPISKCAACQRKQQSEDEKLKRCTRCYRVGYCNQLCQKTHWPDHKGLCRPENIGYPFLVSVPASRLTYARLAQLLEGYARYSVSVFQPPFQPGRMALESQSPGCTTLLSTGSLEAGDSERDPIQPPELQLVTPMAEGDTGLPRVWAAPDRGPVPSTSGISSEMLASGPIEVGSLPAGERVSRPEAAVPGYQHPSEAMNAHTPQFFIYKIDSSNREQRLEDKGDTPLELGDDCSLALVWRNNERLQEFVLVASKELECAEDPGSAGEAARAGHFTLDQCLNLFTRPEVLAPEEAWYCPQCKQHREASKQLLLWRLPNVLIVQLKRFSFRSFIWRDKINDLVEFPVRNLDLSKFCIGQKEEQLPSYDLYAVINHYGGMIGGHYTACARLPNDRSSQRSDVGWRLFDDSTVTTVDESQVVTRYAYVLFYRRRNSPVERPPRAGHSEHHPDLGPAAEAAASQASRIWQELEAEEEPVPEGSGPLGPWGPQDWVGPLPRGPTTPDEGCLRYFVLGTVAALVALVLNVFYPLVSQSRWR
Test: USP19 fluorescence polarisation (FP) homogeneous assay with Ubiquitin-Lys-TAMRA substrate
Type: biochemical
Conditions: 2.5 nM USP19, 30 min pre-incubation, average of at least two duplicate experiments
In short: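 Full-length USP19 preincubated 30 min at RT with inhibitor (200 μM to 2 μM series, 8–18 points) before adding 500 nM Ubiquitin-Lys-TAMRA substrate.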

SMILES	IC50
C[C@H](CC(F)(F)F)C(=O)N1CCC(O)(Cn2ccc3ncncc3c2=O)C2(CCCC2)C1 (stereo partly drawn) [Example 159, 6-((10-Hydroxy-7-((R)-4,4,4-trifluoro-2-methylbutanoyl)-7-azaspiro[4.5]decan-10-yl)methyl)pyrido[4,3-d]pyrimidin-5(6H)-one]	5 to 50 µM
CSc1ncc2c(=O)n(CC3(O)CCN(C(=O)[C@H](C)CC4CCCCC4)CC34CCCC4)cnc2n1 (stereo partly drawn) [Example 160, 3-((7-((R)-3-Cyclohexyl-2-methylpropanoyl)-10-hydroxy-7-azaspiro[4.5]decan-10-yl)methyl)-7-(methylthio)pyrimido[4,5-d]pyrimidin-4(3H)-one]	< 0.5 µM
CSc1ncc2c(=O)n(CC3(O)CCN(C(=O)[C@H](C)CC(F)(F)F)CC34CCCC4)cnc2n1 (stereo partly drawn) [Example 161, 3-((10-Hydroxy-7-((R)-4,4,4-trifluoro-2-methylbutanoyl)-7-azaspiro[4.5]decan-10-yl)methyl)-7-(methylthio)pyrimido[4,5-d]pyrimidin-4(3H)-one]	0.5 to 5 µM
C[C@H](CC(F)(F)F)C(=O)N1CCC(O)(Cn2cnc3nc(N4CCOCC4)ncc3c2=O)C2(CCCC2)C1 (stereo partly drawn) [Example 162, 3-((10-Hydroxy-7-((R)-4,4,4-trifluoro-2-methylbutanoyl)-7-azaspiro[4.5]decan-10-yl)methyl)-7-morpholinopyrimido[4,5-d]pyrimidin-4(3H)-one]	0.5 to 5 µM
C[C@H](CC(F)(F)F)C(=O)N1CCC(O)(Cn2cnc3nc(N4CCN(C)CC4)ncc3c2=O)C2(CCCC2)C1 (stereo partly drawn) [Example 163, 3-((10-Hydroxy-7-((R)-4,44-trifluoro-2-methylbutanoyl)-7-azaspiro[4.5]decan-10-yl)methyl)-7-(4-methylpiperazin-1-yl)pyrimido[4,5-d]pyrimidin-4(3H)-one]	0.5 to 5 µM

Next, values leading:

IC50	SMILES
< 0.5 µM	O=C(N1CCC(O)(Cn2cnc3ccc(F)cc3c2=O)C2(CCCC2)C1)N1CCOC[C@H]1c1ccccc1 (stereo partly drawn) [Example 164, 6-Fluoro-3-((10-Hydroxy-7-((R)-3-phenylmorpholine-4-carbonyl)-7-azaspiro[4.5]decan-10-yl)methyl)quinazolin-4(3H)-one]
< 0.5 µM	O=C(N1CCC(O)(Cn2cnc3cc(F)c(F)cc3c2=O)C2(CCCC2)C1)N1CCOC[C@H]1c1ccccc1 (stereo partly drawn) [Example 165, 6,7-Difluoro-3-((10-hydroxy-7-((R)-3-phenylmorpholine-4-carbonyl)-7-azaspiro[4.5]decan-10-yl)methyl)quinazolin-4(3H)-one]
0.5 to 5 µM	O=C(N1CCC(O)(Cn2ccc3ccncc3c2=O)C2(CCCC2)C1)N1CCOC[C@H]1c1ccccc1 (stereo partly drawn) [Example 166, 2-((10-Hydroxy-7-((R)-3-phenylmorpholine-4-carbonyl)-7-azaspiro[4.5]decan-10-yl)methyl)-2,7-naphthyridin-1(2H)-one]
0.5 to 5 µM	O=C(N1CCC(O)(Cn2cnc3c(cnn3Cc3ccccc3)c2=O)C2(CCCC2)C1)N1CCOC[C@H]1c1ccccc1 (stereo partly drawn) [Example 167, 1-Benzyl-5-((10-hydroxy-7-((R)-3-phenylmorpholine-4-carbonyl)-7-azaspiro[4.5]decan-10-yl)methyl)-1,5-dihydro-4H-pyrazolo[3,4-d]pyrimidin-4-one]
5 to 50 µM	C[C@H](CC(F)(F)F)C(=O)N1CCC(O)(Cn2cnc3c(cnn3Cc3ccccc3)c2=O)C2(CCCC2)C1 (stereo partly drawn) [Example 168, 1-Benzyl-5-((10-hydroxy-7-((R)-4,4,4-trifluoro-2-methylbutanoyl)-7-azaspiro[4.5]decan-10-yl)methyl)-1,5-dihydro-4H-pyrazolo[3,4-d]pyrimidin-4-one]
< 0.5 µM	O=C(N1CCC(O)(Cn2cnc3ccc(F)cc3c2=O)C2(CCCC2)C1)N1CCNC[C@H]1c1ccccc1 (stereo partly drawn) [Example 169, 6-Fluoro-3-((10-hydroxy-7-((R)-2-phenylpiperazine-1-carbonyl)-7-azaspiro[4.5]decan-10-yl)methyl)quinazolin-4(3H)-one]
